# PMC9896003, “Discovery of a novel, liver-targeted thyroid hormone receptor-β agonist, CS271011, in the treatment of lipid metabolism disorders” (Frontiers in Endocrinology, 2023)
# Where two headings read alike, the source gives them in different places.
# Columns and labels:
# [1] = Serum pharmacokinetic study, single oral gavage; assay type: in vivo, C57BL/6J mice; details: for AUC(0-inf) / AUC(0-t) / Cmax / Tmax / half-life / MRT last: male, mouse, serum, po, orally once, normal C57BL/6J mice; for MRT last: read-out: MRT(0-t)
# Protocol: Then, each group was subdivided into three groups for blood extraction: Group 1, sample collection after 0.5 hours and 2 hours of treatment (n=3); Group 2, sample collection after 1 hour and 4 hours of treatment (n=3); and Group 3, sample collection after 8 hours and 24 hours of treatment (n=3). Approximately 100 μl of blood was collected from the orbit and centrifuged (3500 g, 15 min, 4°C) to extract serum and placed on ice (0°C), and 20 μl of serum was added to 200 μl of extractant (containing 200 ng/ml methanol), which was assessed by liquid chromatography-tandem mass spectrometry (LC−MS/MS) procedures. […]
# [2] = Tissue distribution study (heart, liver, kidney, blood) by LC-MS/MS; assay type: in vivo, C57BL/6J mice; details: for Concentration, Blood / Concentration, Heart / Kp at 24 h: 24h; for Concentration, Blood / Concentration, Heart: mean; for Kp at 2 h / Kp at 4 h / Kp at 24 h: C57BL/6J, mouse
# Protocol: To detect the tissue distribution of drugs, the heart, liver, and kidney of mice in Group 1, Group 2, and Group 3 were collected at 2 hours, 4 hours, and 24 hours, respectively. Then, 1 ml of 1X PBS was added for tissue homogenization. 50 μl tissue homogenate was added to 500 μl of extractant (containing 200 ng/ml methanol). The protein of tissue samples was precipitated by vortex oscillation for 5 min and centrifuged at 13,000 rpm for 10 min, and 150 μL of supernatant was collected and determined by LC−MS/MS procedures.
# [3] = DIO mouse study: body weight, food intake, liver and heart weight; assay type: in vivo; details: DIO mice
# Protocol: (§1) All animal experiments were performed at Chipscreen Biosciences (Shenzhen, China) according to the National Research Council’s Guide for the Care and Use of Laboratory Animals and the Regulations of Experimental Animal Administration issued by the State Committee of Science and Technology of China and approved by Shenzhen Peking University - The Hong Kong University of Science and Technology Medical Center’s Ethics Committee for the Welfare of Laboratory Animals (approval no. 2022-988). Forty C57BL/6J mice (4-5 weeks, male) were received and raised under a standard 12-hour light/dark cycle (lights off at 7:00 pm). Thirty-five mice were fed a fat-rich diet (SYSE Bio-tech, D12492i; 60% of kcal from fat; Changzhou, China), and the other five mice were fed a control diet (Guangdong Medical Laboratory Animal Center, Foshan, China) ad libitum for 12 weeks. […] The mice from Group 2 to Group 5 were fed a high-fat diet. […] Body weight and food intake were measured once daily during treatment. All mice were sacrificed after treatment, and blood, hearts, and livers were collected for further validation.
# DIO mice [4] = experiment: DIO mouse study: serum biochemical indices; assay type: in vivo
# Protocol: as §1
# Blood samples were collected from the orbit and placed for 30 min at room temperature and then centrifuged (3500 g, 15 min, 4°C), and the serum was collected for TG, TC, AST, and ALT tests. For the liver TG and TC tests, the right lobe of the liver was collected and weighed accurately, and then isopropanol and absolute ethanol were added at a ratio of 1:9 (weight/volume) for tissue homogenization on ice. Next, the liver sample was centrifuged (10,000 g and 2500 g, 10 min, at 4°C for liver TG and TC extraction, respectively), and the supernatant was collected for liver TG and TC assays. Tests for TC, ALT and AST were performed following the manufacturer’s instructions.
# DIO mice [5] = experiment: DIO mouse study: liver TG and TC; assay type: in vivo, C57BL/6J mice; details: 3 mg/kg, 10 weeks
# Protocol: as §1
# Blood samples were collected from the orbit and placed for 30 min at room temperature and then centrifuged (3500 g, 15 min, 4°C), and the serum was collected for TG, TC, AST, and ALT tests. […]
# DIO mice [6] = experiment: DIO mouse study: liver histology (H&E, Oil Red O, NAFLD activity score); assay type: in vivo, C57BL/6J mice; details: 3 mg/kg, 10 weeks
# Protocol: All animal experiments were performed at Chipscreen Biosciences (Shenzhen, China) according to the National Research Council’s Guide for the Care and Use of Laboratory Animals and the Regulations of Experimental Animal Administration issued by the State Committee of Science and Technology of China and approved by Shenzhen Peking University - The Hong Kong University of Science and Technology Medical Center’s Ethics Committee for the Welfare of Laboratory Animals (approval no. 2022-988). Forty C57BL/6J mice (4-5 weeks, male) were received and raised under a standard 12-hour light/dark cycle (lights off at 7:00 pm). Thirty-five mice were fed a fat-rich diet (SYSE Bio-tech, D12492i; 60% of kcal from fat; Changzhou, China), and the other five mice were fed a control diet (Guangdong Medical Laboratory Animal Center, Foshan, China) ad libitum for 12 weeks. […] The mice from Group 2 to Group 5 were fed a high-fat diet. Treatments started on the thirteenth week and lasted 10 weeks, in which Groups 1 and 2 received solvent (0.2% CMC-Na), and the other groups were administered corresponding compounds orally once daily (the volume of solvent was 5 ml/kg). Body weight and food intake were measured once daily during treatment. All mice were sacrificed after treatment, and blood, hearts, and livers were collected for further validation.
# After the animals were sacrificed, the left hepatic lobe was collected (approximately 100–200 mg) and fixed in 4% paraformaldehyde overnight. The liver tissue was sectioned at a thickness of 5 μm after being paraffin-embedded. Liver sections were stained with haematoxylin and eosin (H&E), and the NAFLD activity scores were determined based on the steatosis, lobular inflammation, and hepatocyte ballooning degeneration in accordance with the standard proposed by Kleiner ([17]).
# To analyse the content of lipids in the liver, Oil Red O (ORO) staining of isobutyl alcohol-frozen liver sections was conducted by Wuhan Servicebio Technology Co., Ltd. (Wuhan, China). Each positive region of ORO staining was quantified for each sample using Imangepro plus 6.0 software ([…]).
# DIO mice [7] = experiment: RT-PCR of hepatic genes, DIO mice; assay type: in vivo, C57BL/6J mice
# Protocol: The total RNA of fresh liver tissue was extracted using TRIzol reagent (Invitrogen, Carlsbad, CA, USA), and RNA quality was measured using a Nanodrop2000 by calculating the 260/280 ratio. Based on the manufacturer’s instructions, we reverse-transcribed 5 μg of isolated RNA with a Transcriptor First Strand cDNA Synthesis Kit (Roche Diagnostics, Mannheim, Germany). Real-time PCR (RT−PCR) was conducted to measure the relative expression of genes by using SYBR Green Master (ROX) dye (Roche Diagnostics, Mannheim, Germany) and the ABI Prism 7000 Sequence Detection System (Applied Biosystems, Foster City, CA, USA). Changes in target mRNA were standardized to β-actin mRNA levels for each sample in triplicate. The 2-^△△Ct method was used to determine the relative mRNA expression levels.
# DIO mice [8] = experiment: RT-PCR of myocardial energy metabolism gene mGPDH, DIO mice; assay type: in vivo, C57BL/6J mice
# HMC = experiment: Cell viability in kidney cell line HMC; assay type: cell-based
# NRK49F = experiment: Cell viability in kidney cell line NRK49F; assay type: cell-based
# [9] = heart/blood, 10 mg/kg oral, read-out: Ratio (tissue/blood), Heart
# [10] = kidney/blood, 10 mg/kg oral, read-out: Ratio (tissue/blood), Kidney
# [11] = liver/blood, 10 mg/kg oral, read-out: Ratio (tissue/blood), Liver
# [12] = male, heart / blood, 3 mg/kg oral, read-out: Ratio (tissue/blood), Heart
# [13] = male, kidney / blood, 3 mg/kg oral, read-out: Ratio (tissue/blood), Kidney
# [14] = male, liver / blood, 3 mg/kg oral, read-out: Ratio (tissue/blood), Liver
# [15] = 10 weeks oral once daily, CS271011 1 and 3 mg/kg, MGL-3196 3 mg/kg
# [16] = 10 weeks of treatment, CS271011 1 and 3 mg/kg, MGL-3196 3 mg/kg
smiles,measurement,setting,value
"CC(C)c1cc(Oc2c(Cl)cc(-n3nc(C#N)c(=O)[nH]c3=O)cc2Cl)n[nH]c1=O [MGL-3196, 2-[3,5-dichloro-4-(5-isopropyl-6-oxo-1,6-dihydropyridazin-3-yloxy)phenyl]-3,5-dio xo-2,3,4,5-tetrahydro[1,2,4]triazine-6-carbonitrile]","bioavailability in vivo, comparison at the same dosage",[1]; 3 mg/kg and 10 mg/kg oral,higher bioavailability in vivo than CS271011
same,AUC(0-inf),[1]; 3mg/kg,9470 ng·h/mL
same,AUC(0-t),[1]; 3mg/kg,9330 ng·h/mL
same,Cmax,[1]; 3mg/kg,1140 ng/mL
same,Tmax,[1]; 3mg/kg,2 h
same,half-life,[1]; 3mg/kg,3.8 h
same,MRT last,[1]; 3mg/kg,6.3 h
same,AUC(0-inf),[1]; 10mg/kg,35800 ng·h/mL
same,AUC(0-t),[1]; 10mg/kg,35600 ng·h/mL
same,Cmax,[1]; 10mg/kg,4870 ng/mL
same,Tmax,[1]; 10mg/kg,2 h
same,half-life,[1]; 10mg/kg,3 h
same,MRT last,[1]; 10mg/kg,5.8 h
same,tissue distribution (liver targeting),"[2]; 3 mg/kg and 10 mg/kg oral, especially 2 and 4 hours after administration",liver-targeted
same,"Concentration, Blood",[2]; 3 mg/kg oral,25.40 ng/g
same,"Concentration, Heart",[2]; 3 mg/kg oral,78.08 ng/g
same,"Concentration, Blood",[2]; 10 mg/kg oral,42.40 ng/g
same,"Concentration, Heart",[2]; 10 mg/kg oral,147.91 ng/g
same,Kp at 2 h,[2]; [9],0.113
same,Kp at 4 h,[2]; [9],0.112
same,Kp at 24 h,[2]; [9],3.49
same,Kp at 2 h,[2]; [10],0.572
same,Kp at 4 h,[2]; [10],0.607
same,Kp at 24 h,[2]; [10],0.734
same,Kp at 2 h,[2]; [11],4.59
same,Kp at 4 h,[2]; [11],4.63
same,Kp at 24 h,[2]; [11],4.8
same,Kp at 2 h,[2]; [12],0.213
same,Kp at 4 h,[2]; [12],0.146
same,Kp at 24 h,[2]; [12],3.07
same,Kp at 2 h,[2]; [13],0.64
same,Kp at 4 h,[2]; [13],0.617
same,Kp at 24 h,[2]; [13],1.25
same,Kp at 2 h,[2]; [14],6.59
same,Kp at 4 h,[2]; [14],6.17
same,Kp at 24 h,[2]; [14],3.17
same,liver weight and LW/BW,[3]; 10-week drug intervention,dramatically reduced
same,body weight,[3]; [15],dramatic reduction in body weight
same,food intake,[3]; [15],neither CS271011 nor MGL-3196 impeded food intake
same,Serum TG,"DIO mice [4]; 3 mg/kg, 10 weeks, mean ± SD (DIO control 1.25±0.38)",0.59 ± 0.11 mmol/L
same,Serum TC,"DIO mice [4]; 3 mg/kg, 10 weeks, mean ± SD (DIO control 7.79±1.67)",3.46 ± 1.61 mmol/L
same,serum ALT and AST levels,DIO mice [4]; 10 weeks of treatment,no influence
same,serum TC vs. DIO control,DIO mice [4]; [16],significant reduction
same,serum TG vs. DIO control,DIO mice [4]; [16],significant reduction
same,hepatic TC concentration,DIO mice [5],markedly reduced
same,hepatic TG concentration,DIO mice [5],markedly reduced
same,NAS score,DIO mice [6],equivalent efficacy
same,ORO staining area,DIO mice [6],decreased
same,hepatic ballooning,DIO mice [6],mitigated hepatic ballooning with a considerable effect
same,steatosis score,DIO mice [6],decreased
same,hepatic expression of Abcc3,DIO mice [7],negatively regulated
same,"hepatic expression of Csad, Slc25a30 and Tff3 (downregulated in DIO mice)",DIO mice [7],rescued
same,hepatic expression of Cyp4a10,DIO mice [7],obviously downregulated
same,hepatic expression of Cyp39a1,DIO mice [7],upregulated
same,hepatic expression of Hsd17b6,DIO mice [7],diminished
same,"hepatic expression of LDLR, Cyp7a1, Cyp17a1, Srebp2 and Sqle",DIO mice [7],positively regulated
same,hepatic expression of Srebf1,DIO mice [7],strongly downregulated
same,mGPDH expression in the hearts of DIO mice,DIO mice [8],barely affects
same,cell viability,HMC,no effect on cell viability
same,cell viability,NRK49F,no effect on cell viability
